Source: US9861647B2 (Prelief Inc., priority 2007, dated 2018)
“Also recorded” adds a separate entry of the source.

Legend:
[1] = test system: ragweed sensitized Beagle dogs; assay: Ragweed-induced nasal congestion, nasal cavity volume by acoustic rhinometry; format: in vivo
From the text: Beagle dogs immunized with ragweed (RW) as puppies develop allergic immune responses. These allergic dogs show elevated total and specific serum IgE and increased numbers of eosinophils in their blood and lungs, as well as an increase in airway resistance and a decrease in dynamic compliance after a challenge with RW by inhalation or local instillation in defined lung lobes. Additionally, these dogs develop increased nasal congestion and inflammation following RW challenge in the nose.
Ragweed sensitized beagle dogs (n=5) with preexisiting nasal and airway allergic responses were utilized in the animal study described in this Example. Dogs served as their own control and initially were treated with vehicle (sterile water) and then rested for 5 weeks prior to receiving the test compound. […] Based on the aerosol testing only 1.6 mg/dog could be delivered by inhalation during a 15 minute exposure (20 mg/ml solution). […]
FIG. 1 summarizes the study design for characterizing the effects of CGP on rhinitis symptoms in ragweed sensitized Beagle dogs. The baseline nasal cavity volume was first measured 3 days (day −3) before each of the vehicle and CGP treatments. […]
Treatment occurred on Days 0 to 5 (only AM on Day 5). […] The pH of the compound (as administered for nasal inhalation) was recorded prior to administration. […]
Acoustic rhinometery was measured on experimental Days 3, 4, and 5. […]

[2] = test system: histamine, leukotriene C4/D4/E4, prostaglandin D2 and E2 in nasal lavage fluid; assay: Mediators (histamine, leukotrienes, prostaglandins) in nasal lavage fluid after intranasal ragweed challenge; format: in vivo, Beagle dogs
Method: Ragweed sensitized beagle dogs (n=5) with preexisiting nasal and airway allergic responses were utilized in the animal study described in this Example. Dogs served as their own control and initially were treated with vehicle (sterile water) and then rested for 5 weeks prior to receiving the test compound. […] Based on the aerosol testing only 1.6 mg/dog could be delivered by inhalation during a 15 minute exposure (20 mg/ml solution). In addition, each dog received twice daily an intranasal instillation of 30 mg (2×375 μl of 20 mg/ml in each nostril) given within 30 minutes after the end of the inhalation exposures.
FIG. 1 summarizes the study design for characterizing the effects of CGP on rhinitis symptoms in ragweed sensitized Beagle dogs. The baseline nasal cavity volume was first measured 3 days (day −3) before each of the vehicle and CGP treatments. The dogs were treated with vehicle or CGP (day 0) twice daily with the target dosage described above. Three days into the vehicle or CGP treatment, nasal challenge with ragweed was performed (day 3). Treatment with vehicle or CGP continued during the assessment of rhinitis endpoints, e.g., total treatment duration=6 days (day 0-5) for each of the vehicle and CGP treatments. There were 5 weeks following the first intranasal RW challenge during the vehicle treatment and the CGP treatment.
Vehicle (sterile water) was given twice daily by inhalation (15 minutes) followed by intranasal instillation of water (2×250 μl in each nostril). […] The test-article and the compound solution were prepared in the morning of each treatment day. Vehicle and test-article were administered by inhalation and intranasal instillation twice a day. Dosing of vehicle or test compound was achieved by utilizing a face mask connected to a jet nebulizer for inhalation delivery followed by intranasal instillation in both nostrils using an Accuspray device.
Rhinitis assessments were conducted using one or more of the following tests. • Nasal cavity geometry (AcR) pre/post antigen challenge in both nares • 1. time 0 (just prior to RW instillation) • 2. at 15, 30, 45, 60, 75, 90 min, 24 h and 48 h post RW challenge • Nasal lavage of both nares at baseline and at 24 h (Day 4) and 48 h (Day 5) post RW instillation and only one side at 15, 30, 45 and 60 min post RW challenge (Day 3) • 1. Release of histamine, leukotrienes and prostaglandins in nasal lavage fluid baseline (prior to compound or RW treatment/challenge), 15, 30, 45, 60 min and 24 h post RW instillation • 2. Nasal lavage cells from the baseline (Day-3), 24 h (Day 4) and 48 h (Day 5) hour lavage were used for determination of inflammatory cell differentials • 3. Excess nasal lavage fluid was frozen for analysis of cytokines. • Cardiovascular readouts (heart rate, O2 saturation, body temperature) throughout nasal congestion measurement.
While under anesthesia a flexible plastic catheter was inserted several centimeters into the dog's nare. The nare was washed with a phosphate buffered saline solution (PBS; 3×5 ml for collection of cells [baseline, 24 and 48 h post RW challenge]; 1×5 ml for collection of fluid for mediators [15, 30, 45, and 60 minutes post RW challenge]).
Total nasal cells were determined using an automatic cell counter. Cells were spun onto slides by cytocentrifugation and stained with a modified Wright-Giemsa stain. At least four hundred inflammatory cells (or less if applicable) were counted and the percentage of specific cell types determined for each animal (slides in duplicates, 200 cells per slide). The first lavage fluid sample (after centrifugation) was frozen separately for mediator analysis. Mediator analysis for histamine, leukotrienes, and prostaglandins were performed according to the kit manufacturer instructions (Immunotech—Beckman Coulter Company #IM2015, Neogen Corporation #406410, Cayman Chemical Company: PGE2—#514010, PGD2—#512011, respectively). […]

[3] = test system: nosebleeds; assay: Stanching nosebleeds at higher CGP levels; format: in vivo; settings: higher levels tested, about 7.5% (w/w) or above
[4] = before and after ragweed challenge, vs vehicle, n=5, One Way Anova, Dunnett's posttest

## calcium glycerophosphate
[1]; 15 to 90 minutes post ragweed, Bonferroni posttest p<0.05
  attenuation of nasal congestion at individual time points: statistically significant at all time points from 15 to 90 minutes post ragweed
[1]; vs vehicle control, n=5, Paired t-test p=0.0092
  AUC of the change in nasal cavity volume between 0 and 90 min: significantly increased
[2]; [4]
  histamine levels in nasal lavage fluid: no statistical significance was reached
  levels of leukotriene C4/D4/E4 in nasal lavage fluid: no statistical significance was reached
  prostaglandin D2 levels in nasal lavage fluid: no statistical significance was reached
  prostaglandin E2 levels in nasal lavage fluid: Levels of PGE2 decreased following ragweed challenge; also recorded: no statistical significance was reached
[2]; compound vs vehicle treatment, statistical significance not reached
  histamine, leukotriene and prostaglandin D2 and E2 levels in nasal lavage fluid: partially altered
[2]; vs vehicle, Two Way Anova p<0.009, no significance at individual time points
  prostaglandin E2 levels normalized to baseline (T0 = 100%): a greater reduction in PGE2 levels following RW challenge; also recorded: significantly attenuated compared to vehicle treatment
[2]; vs vehicle, n=5
  AUC of histamine levels between 0 and 60 min: histamine levels decreased in two of the 5 dogs, no statistical significance was reached
  AUC of prostaglandin D2 levels between 0 and 60 min: prostaglandin D2 levels decreased in three dogs and increased in two dogs and no statistical significance was reached
[3]
  stanching nosebleeds: may help in stanching nosebleeds
